Test results as given in patent US10183914B2 (BAYER CROPSCIENCE AKTIENGESELLSCHAFT, priority 2014, dated 2019).

How the values were obtained:
[1] = logp (HCOOH), physicochemical characterization
[2] = system: Triticum aestivum (spring); assay: Pre-emergence herbicidal effect and crop plant compatibility; type: in vivo; conditions: 3 weeks
Method in brief: (§1)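 Pre-emergence greenhouse test: seeds sown in sandy loam, compounds (WP or EC) sprayed onto covering soil as aqueous suspension/emulsion at 600 to 800 L/ha water with 0.2% wetting agent. Damage scored visually after 3 weeks versus untreated controls as percent efficacy (100% = plants dead).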

Zea mays [3] = assay: as above; type: in vivo; conditions: 3 weeks
Method in brief: as §1

Alopecurus myosuroides [4] = assay: Pre-emergence herbicidal effect; type: in vivo; conditions: 320 g/ha, 3 weeks
Method in brief: as §1

Amaranthus retroflexus = assay: Pre-emergence herbicidal effect; type: in vivo; conditions: 3 weeks
Method in brief: as §1

Avena fatua [5] = assay: Pre-emergence herbicidal effect; type: in vivo; conditions: 320 g/ha, 3 weeks
Method in brief: as §1

Echinochloa crus-galli [6] = assay: Pre-emergence herbicidal effect; type: in vivo; conditions: 3 weeks
Method in brief: as §1

Lolium multiflorum [7] = assay: Pre-emergence herbicidal effect; type: in vivo; conditions: 3 weeks
Method in brief: as §1

Matricaria inodora = assay: Pre-emergence herbicidal effect; type: in vivo; conditions: 3 weeks
Method in brief: as §1

Polygonum convolvulus = assay: Pre-emergence herbicidal effect; type: in vivo; conditions: 3 weeks
Method in brief: as §1

Setaria viridis [8] = assay: Pre-emergence herbicidal effect; type: in vivo; conditions: 3 weeks
Method in brief: as §1

Stellaria media = assay: Pre-emergence herbicidal effect; type: in vivo; conditions: 3 weeks
Method in brief: as §1

Veronica persica = assay: Pre-emergence herbicidal effect; type: in vivo; conditions: 3 weeks
Method in brief: as §1

Viola tricolor = assay: Pre-emergence herbicidal effect; type: in vivo; conditions: 3 weeks
Method in brief: as §1

Brassica napus = assay: Post-emergence herbicidal effect and crop plant compatibility; type: in vivo; conditions: 80 g/ha, visual scoring after about 3 weeks
Method in brief: (§2)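 Greenhouse-grown plants at the one-leaf stage (2–3 weeks after sowing) were sprayed with WP or EC formulations in water at 600–800 L/ha plus 0.2% wetting agent. About 3 weeks later, efficacy was scored visually against untreated controls: 100% = plants dead, 0% = like control.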

Oryza sativa [9] = assay: as above; type: in vivo; conditions: visual scoring after about 3 weeks
Method in brief: as §2

[10] = system: Triticum aestivum (spring); assay: as above; type: in vivo; conditions: visual scoring after about 3 weeks
Method in brief: as §2

Zea mays [11] = assay: as above; type: in vivo; conditions: visual scoring after about 3 weeks
Method in brief: as §2

Oryza sativa [12] = assay: Pre-emergence herbicidal effect and crop plant compatibility; type: in vivo; conditions: 3 weeks
Method in brief: as §1

Abutilon theophrasti = assay: Pre-emergence herbicidal effect; type: in vivo; conditions: 3 weeks
Method in brief: as §1

Ipomoea purpurea [13] = assay: Pre-emergence herbicidal effect; type: in vivo; conditions: 320 g/ha, 3 weeks
Method in brief: as §1

Alopecurus myosuroides [14] = assay: Post-emergence herbicidal effect; type: in vivo; conditions: 320 g/ha, visual scoring after about 3 weeks
Method in brief: as §2

Avena fatua [15] = assay: Post-emergence herbicidal effect; type: in vivo; conditions: 320 g/ha, visual scoring after about 3 weeks
Method in brief: as §2

Echinochloa crus-galli [16] = assay: Post-emergence herbicidal effect; type: in vivo; conditions: visual scoring after about 3 weeks
Method in brief: as §2

Ipomoea purpurea [17] = assay: Post-emergence herbicidal effect; type: in vivo; conditions: scoring after about 3 weeks
Method in brief: as §2

Lolium multiflorum [18] = assay: Post-emergence herbicidal effect; type: in vivo; conditions: 320 g/ha, visual scoring after about 3 weeks
Method in brief: as §2

Setaria viridis [19] = assay: Post-emergence herbicidal effect; type: in vivo; conditions: 320 g/ha (dose by row order of upper half), scoring after about 3 weeks
Method in brief: as §2

Which results are given for `CC1CC(=O)c2cnc(N[C@@H]3CCCc4ccccc43)nc2C1` (some centres unmarked) [2.26]?
logp (HCOOH) [1]: oily; logp (HCOOH): 3.45; 1H-NMR (CDCl3, 400 MHZ, δ in ppm): 1.15 (m, 3H, CH3);; TRZAS herbicidal activity in percent ([2]; 80 g/ha): 0%; ZEAMX herbicidal activity in percent (Zea mays [3]; 80 g/ha): 0%; ALOMY herbicidal activity in percent (Alopecurus myosuroides [4]): 90%; AMARE herbicidal activity in percent (Amaranthus retroflexus; 80 g/ha): 100%; AMARE herbicidal activity in percent (Amaranthus retroflexus; 320 g/ha): 100%; AVEFA herbicidal activity in percent (Avena fatua [5]): 90%; ECHCG herbicidal activity in percent (Echinochloa crus-galli [6]; 80 g/ha): 80%; ECHCG herbicidal activity in percent (Echinochloa crus-galli [6]; 320 g/ha): 100%; LOLMU herbicidal activity in percent (Lolium multiflorum [7]; 320 g/ha): 100%; MATIN herbicidal activity in percent (Matricaria inodora; 320 g/ha): 100%; POLCO herbicidal activity in percent (Polygonum convolvulus; 320 g/ha): 100%; SETVI herbicidal activity in percent (Setaria viridis [8]; 320 g/ha): 90%; STEME herbicidal activity in percent (Stellaria media; 80 g/ha): 100%; STEME herbicidal activity in percent (Stellaria media; 320 g/ha): 100%; VERPE herbicidal activity in percent (Veronica persica; 80 g/ha): 80%; VERPE herbicidal activity in percent (Veronica persica; 320 g/ha): 100%; VIOTR herbicidal activity in percent (Viola tricolor; 80 g/ha): 90%; VIOTR herbicidal activity in percent (Viola tricolor; 320 g/ha): 100%; post-emergence efficacy BRSNW (Brassica napus): 20%; post-emergence efficacy ORYSA (Oryza sativa [9]; 80 g/ha): 0%; post-emergence efficacy ORYSA (Oryza sativa [9]; 320 g/ha): 0%; post-emergence efficacy TRZAS ([10]; 80 g/ha): 0%; post-emergence efficacy TRZAS ([10]; 320 g/ha): 0%; post-emergence efficacy ZEAMX (Zea mays [11]; 80 g/ha): 0%; post-emergence efficacy ZEAMX (Zea mays [11]; 320 g/ha): 0%

Which “logp (HCOOH)” value [1] does the source give for `Cc1ccc2c(c1)[C@H](Nc1ncc3c(n1)CC(c1ccc(F)cc1)CC3=O)[C@@H](C)C2` (some centres unmarked) [2.52] here?
Its value is “oily; logp (HCOOH): 4.87; 1H-NMR (CDCl3, 400 MHZ, δ in ppm): 1.25 (t, 3H, CH3);”.

What about the “ORYSA herbicidal activity in percent” value (Oryza sativa [12]; 80 g/ha) of the same compound?
The value was 0%.

And the “ORYSA herbicidal activity in percent” value (Oryza sativa [12]; 320 g/ha)?
The value was 20%.

What about the “TRZAS herbicidal activity in percent” value ([2]; 80 g/ha) of the same compound?
The value was 0%.

And the “TRZAS herbicidal activity in percent” value ([2]; 320 g/ha)?
Its value is 30%.

What about the “ZEAMX herbicidal activity in percent” value (Zea mays [3]; 80 g/ha) of the same compound?
The value was 0%.

What about the “ZEAMX herbicidal activity in percent” value (Zea mays [3]; 320 g/ha) of the same compound?
The value was 10%.

What about the “ABUTH herbicidal activity in percent” value (Abutilon theophrasti; 320 g/ha) of the same compound?
Its value is 0%.

And the “AMARE herbicidal activity in percent” value (Amaranthus retroflexus; 320 g/ha)?
The value was 100%.

What about the “ECHCG herbicidal activity in percent” value (Echinochloa crus-galli [6]; 320 g/ha) of the same compound?
The value was 100%.

And the “LOLMU herbicidal activity in percent” value (Lolium multiflorum [7]; 320 g/ha)?
The value was 90%.

And the “MATIN herbicidal activity in percent” value (Matricaria inodora; 320 g/ha)?
Its value is 100%.

What about the “POLCO herbicidal activity in percent” value (Polygonum convolvulus; 320 g/ha) of the same compound?
The value was 60%.

And the “SETVI herbicidal activity in percent” value (Setaria viridis [8]; 320 g/ha)?
The value was 70%.

And the “STEME herbicidal activity in percent” value (Stellaria media; 320 g/ha)?
The value was 100%.

And the “VERPE herbicidal activity in percent” value (Veronica persica; 80 g/ha)?
The value was 90%.

What about the “VERPE herbicidal activity in percent” value (Veronica persica; 320 g/ha) of the same compound?
The value was 100%.

What about the “VIOTR herbicidal activity in percent” value (Viola tricolor; 80 g/ha) of the same compound?
The value was 100%.

What about the “VIOTR herbicidal activity in percent” value (Viola tricolor; 320 g/ha) of the same compound?
The value was 100%.

And the “post-emergence efficacy BRSNW” value (Brassica napus)?
Its value is 20%.

And the “post-emergence efficacy ORYSA” value (Oryza sativa [9]; 80 g/ha)?
The value was 0%.

And the “post-emergence efficacy ORYSA” value (Oryza sativa [9]; 320 g/ha)?
The value was 0%.

What about the “post-emergence efficacy TRZAS” value ([10]; 80 g/ha) of the same compound?
Its value is 0%.

And the “post-emergence efficacy TRZAS” value ([10]; 320 g/ha)?
Its value is 0%.

And the “post-emergence efficacy ZEAMX” value (Zea mays [11]; 80 g/ha)?
The value was 0%.

What about the “post-emergence efficacy ZEAMX” value (Zea mays [11]; 320 g/ha) of the same compound?
Its value is 0%.

Which results are given for `Cc1ccc2c(c1)[C@H](Nc1ncc3c(n1)CC(C)(C)CC3=O)[C@@H](C)C2` [2.45]?
logp (HCOOH) [1]: oily; logp (HCOOH): 4.23; 1H-NMR (CDCl3, 400 MHZ, δ in ppm): 1.10 (m, 6H,; ORYSA herbicidal activity in percent (Oryza sativa [12]; 80 g/ha): 0%; ORYSA herbicidal activity in percent (Oryza sativa [12]; 320 g/ha): 10%; ZEAMX herbicidal activity in percent (Zea mays [3]; 80 g/ha): 10%; ABUTH herbicidal activity in percent (Abutilon theophrasti; 80 g/ha): 80%; ABUTH herbicidal activity in percent (Abutilon theophrasti; 320 g/ha): 80%; ALOMY herbicidal activity in percent (Alopecurus myosuroides [4]): 90%; AMARE herbicidal activity in percent (Amaranthus retroflexus; 80 g/ha): 100%; AMARE herbicidal activity in percent (Amaranthus retroflexus; 320 g/ha): 100%; AVEFA herbicidal activity in percent (Avena fatua [5]): 80%; ECHCG herbicidal activity in percent (Echinochloa crus-galli [6]; 80 g/ha): 100%; ECHCG herbicidal activity in percent (Echinochloa crus-galli [6]; 320 g/ha): 100%; PHBPU herbicidal activity in percent (Ipomoea purpurea [13]): 90%; LOLMU herbicidal activity in percent (Lolium multiflorum [7]; 80 g/ha): 80%; LOLMU herbicidal activity in percent (Lolium multiflorum [7]; 320 g/ha): 100%; MATIN herbicidal activity in percent (Matricaria inodora; 80 g/ha): 90%; MATIN herbicidal activity in percent (Matricaria inodora; 320 g/ha): 90%; POLCO herbicidal activity in percent (Polygonum convolvulus; 80 g/ha): 100%; POLCO herbicidal activity in percent (Polygonum convolvulus; 320 g/ha): 100%; SETVI herbicidal activity in percent (Setaria viridis [8]; 80 g/ha): 100%; SETVI herbicidal activity in percent (Setaria viridis [8]; 320 g/ha): 100%; STEME herbicidal activity in percent (Stellaria media; 80 g/ha): 100%; STEME herbicidal activity in percent (Stellaria media; 320 g/ha): 100%; VERPE herbicidal activity in percent (Veronica persica; 80 g/ha): 100%; VERPE herbicidal activity in percent (Veronica persica; 320 g/ha): 100%; VIOTR herbicidal activity in percent (Viola tricolor; 80 g/ha): 100%; VIOTR herbicidal activity in percent (Viola tricolor; 320 g/ha): 100%; post-emergence efficacy ORYSA (Oryza sativa [9]; 80 g/ha): 20%; post-emergence efficacy TRZAS ([10]; 80 g/ha): 10%; post-emergence efficacy TRZAS ([10]; 320 g/ha): 10%; post-emergence efficacy ZEAMX (Zea mays [11]; 80 g/ha): 0%; post-emergence efficacy ZEAMX (Zea mays [11]; 320 g/ha): 0%; post-emergence efficacy ALOMY (Alopecurus myosuroides [14]): 80%; post-emergence efficacy AVEFA (Avena fatua [15]): 80%; post-emergence efficacy ECHCG (Echinochloa crus-galli [16]; 80 g/ha): 100%; post-emergence efficacy ECHCG (Echinochloa crus-galli [16]; 320 g/ha): 100%; post-emergence efficacy PHBPU (Ipomoea purpurea [17]; 80 g/ha (dose by row order of upper half)): 100%; post-emergence efficacy PHBPU (Ipomoea purpurea [17]; 320 g/ha (dose by row order of upper half)): 100%; post-emergence efficacy LOLMU (Lolium multiflorum [18]): 100%; post-emergence efficacy SETVI (Setaria viridis [19]): 90%
